Results published in PubChem BioAssay AID256 (DTP/NCI, 2004).
Several values for one entry are separate records, joined by “and”; a condition that tells them apart may be missing. Equal entries are not always repeated. Toxic doses and inconclusive results are not listed. The calls were made as follows: active = survival T/C of 150% or more; inactive = T/C below 125% in these data.

Tested on: CD2F1 mice, L1210 leukemia ip, survival T/C
Assay: NCI In Vivo Anticancer Drug Screen. Data for tumor model L1210 Leukemia (intraperitoneal) in CD2F1 (CDF1) mice
Details: higher = longer survival
How it was run: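 Antitumor effect is scored in animals hosting a serially transplanted tumor. Values compare compound-dosed animals against vehicle-only controls as a simple quotient.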

[1] = endpoint: mean survival time, dose: 100.0 mg/kg/injection, schedule: Q04DX003 (ip), vehicle: saline with Tween-80
[2] = endpoint: mean survival time, dose: 200.0 mg/kg/injection, schedule: Q04DX003 (ip), vehicle: saline with Tween-80
[3] = endpoint: mean survival time, dose: 400.0 mg/kg/injection, schedule: Q04DX003 (ip), vehicle: saline with Tween-80
[4] = endpoint: mean survival time, dose: 100.0 mg/kg/injection, schedule: Q01DX001 (ip), vehicle: saline

Measured: T/C

CC(CO)(CO)[N+](=O)[O-]
inactive: endpoint: mean survival time, dose: 100.0 mg/kg/injection, schedule: Q01DX009 (ip), vehicle: saline 98 % of control | endpoint: mean survival time, dose: 200.0 mg/kg/injection, schedule: Q01DX009 (ip), vehicle: saline 102 % of control | endpoint: mean survival time, dose: 400.0 mg/kg/injection, schedule: Q01DX009 (ip), vehicle: saline 104 % of control

Cc1cc(CO)c(O)c(CO)c1
inactive: endpoint: mean survival time, dose: 100.0 mg/kg/injection, schedule: Q01DX009 (ip), vehicle: saline with Tween-80 91 % of control | endpoint: mean survival time, dose: 200.0 mg/kg/injection, schedule: Q01DX009 (ip), vehicle: saline with Tween-80 91 % of control | endpoint: mean survival time, dose: 400.0 mg/kg/injection, schedule: Q01DX009 (ip), vehicle: saline with Tween-80 91 % of control

O=C1c2ccccc2-c2ccc(-c3ccc4c5c(cccc35)C(=O)c3ccccc3-4)c3cccc1c23
inactive: [1] 97 % of control | [2] 97 % of control | [3] 86 % of control

O=C(O)CNC(=O)C(Br)Cc1ccccc1 (configuration not stated)
inactive: [1] 101 % of control | [2] 101 % of control | [3] 103 % of control

CCN(CC)CCNc1cc(C)nc(/N=C(\N)Nc2ccc(Br)c(C(F)(F)F)c2)n1
inactive: [1] 98 % of control

CNC(=O)c1ccccc1N=NN(C)C
inactive: endpoint: mean survival time, dose: 18.75 mg/kg/injection, schedule: Q01DX009 (ip), vehicle: Klucel (hydroxypropylcellulose) (HPC) 98 % of control and 103 % of control and 106 % of control | endpoint: mean survival time, dose: 37.5 mg/kg/injection, schedule: Q01DX009 (ip), vehicle: Klucel (hydroxypropylcellulose) (HPC) 122 % of control and 98 % of control and 105 % of control | endpoint: mean survival time, dose: 75.0 mg/kg/injection, schedule: Q01DX009 (ip), vehicle: Klucel (hydroxypropylcellulose) (HPC) 122 % of control

O.O.[Cl][Pt+2][Cl].[NH-]C1CCCCC1[NH-] (configuration not stated)
inactive: endpoint: mean survival time, dose: 2.5 mg/kg/injection, schedule: Q04DX003 (ip), vehicle: dextrose 110 % of control | endpoint: mean survival time, dose: 5.0 mg/kg/injection, schedule: Q04DX003 (ip), vehicle: dextrose 113 % of control | endpoint: mean survival time, dose: 80.0 mg/kg/injection, schedule: Q04DX003 (ip), vehicle: dextrose 96 % of control | endpoint: median survival time, dose: 1.25 mg/kg/injection, schedule: Q04DX003 (ip), vehicle: saline 109 % of control | endpoint: median survival time, dose: 2.5 mg/kg/injection, schedule: Q04DX003 (ip), vehicle: saline 110 % of control | endpoint: median survival time, dose: 4.0 mg/kg/injection, schedule: Q04DX003 (ip), vehicle: saline 110 % of control [middle of 5 runs] | endpoint: median survival time, dose: 5.0 mg/kg/injection, schedule: Q04DX003 (ip), vehicle: saline 119 % of control | endpoint: median survival time, dose: 8.0 mg/kg/injection, schedule: Q04DX003 (ip), vehicle: saline 120 % of control | endpoint: median survival time, dose: 64.0 mg/kg/injection, schedule: Q04DX003 (ip), vehicle: saline 98 % of control and 120 % of control and 124 % of control

CCCCSC(=N)N
inactive: endpoint: mean survival time, dose: 25.0 mg/kg/injection, schedule: Q01DX001 (ip), vehicle: saline 100 % of control | endpoint: mean survival time, dose: 50.0 mg/kg/injection, schedule: Q01DX001 (ip), vehicle: saline 105 % of control | [4] 113 % of control

COC1=N/C=C/C=C\C/C=C/C1
inactive: endpoint: median survival time, dose: 50.0 mg/kg/injection, schedule: Q04DX002 (ip), vehicle: saline with Tween-80 111 % of control | endpoint: median survival time, dose: 100.0 mg/kg/injection, schedule: Q04DX002 (ip), vehicle: saline with Tween-80 88 % of control | endpoint: median survival time, dose: 200.0 mg/kg/injection, schedule: Q04DX002 (ip), vehicle: saline with Tween-80 100 % of control | endpoint: median survival time, dose: 400.0 mg/kg/injection, schedule: Q04DX002 (ip), vehicle: saline with Tween-80 88 % of control

Cc1ccc(C(=O)O)s1
inactive: [1] 91 % of control | [2] 97 % of control

Nn1cnc2ccccc2c1=O
inactive: [4] 101 % of control | endpoint: mean survival time, dose: 200.0 mg/kg/injection, schedule: Q01DX001 (ip), vehicle: saline 102 % of control | endpoint: mean survival time, dose: 400.0 mg/kg/injection, schedule: Q01DX001 (ip), vehicle: saline 102 % of control

Cc1nc2c(c[n+]1C)CN1C=Nc3c(ncn3C3OC(CO)C(O)C3O)C1=N2 (configuration not stated)
inactive: endpoint: median survival time, dose: 12.5 mg/kg/injection, schedule: Q01DX005 (ip), vehicle: saline 98 % of control | endpoint: median survival time, dose: 25.0 mg/kg/injection, schedule: Q01DX005 (ip), vehicle: saline 100 % of control | endpoint: median survival time, dose: 50.0 mg/kg/injection, schedule: Q01DX005 (ip), vehicle: saline 100 % of control | endpoint: median survival time, dose: 100.0 mg/kg/injection, schedule: Q01DX005 (ip), vehicle: saline 100 % of control | endpoint: median survival time, dose: 200.0 mg/kg/injection, schedule: Q01DX005 (ip), vehicle: saline 100 % of control
